Columns and labels:
[1] = Displacement of [3H]-NTI from delta opioid receptor in guinea pig forebrain homogenates; type: tissue-based, Cavia porcellus, Brain
[2] = organism: Cavia porcellus; test: Selectivity ratio of Ki for delta opioid receptor in guinea pig forebrain homogenates to Ki for mu opioid receptor in guinea pig forebrain homogenates; type: tissue-based
[3] = molecular target: Kappa-type opioid receptor (Cavia porcellus, UniProt P41144); test: Displacement of [3H]-U69593 from kappa opioid receptor in guinea pig cerebellum homogenates; type: tissue-based
[4] = molecular target: Mu-type opioid receptor (Cavia porcellus, UniProt P97266); test: Displacement of [3H]-DAMGO from mu opioid receptor in guinea pig forebrain homogenates; type: tissue-based, Brain
[5] = tested on: Mus musculus; test: Ratio of morphine ED50 to compound ED50 for antinociceptive activity in sc dosed mouse by acetic acid writhing test; type: functional
[6] = tested on: Mus musculus; test: Antinociceptive activity in sc dosed mouse by acetic acid writhing test; type: functional

Sequence of Mu-type opioid receptor (P97266 whole entry): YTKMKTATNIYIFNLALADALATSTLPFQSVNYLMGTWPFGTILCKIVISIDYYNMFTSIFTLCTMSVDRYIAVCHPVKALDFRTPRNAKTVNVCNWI
Sequence of Kappa-type opioid receptor (P41144 whole entry): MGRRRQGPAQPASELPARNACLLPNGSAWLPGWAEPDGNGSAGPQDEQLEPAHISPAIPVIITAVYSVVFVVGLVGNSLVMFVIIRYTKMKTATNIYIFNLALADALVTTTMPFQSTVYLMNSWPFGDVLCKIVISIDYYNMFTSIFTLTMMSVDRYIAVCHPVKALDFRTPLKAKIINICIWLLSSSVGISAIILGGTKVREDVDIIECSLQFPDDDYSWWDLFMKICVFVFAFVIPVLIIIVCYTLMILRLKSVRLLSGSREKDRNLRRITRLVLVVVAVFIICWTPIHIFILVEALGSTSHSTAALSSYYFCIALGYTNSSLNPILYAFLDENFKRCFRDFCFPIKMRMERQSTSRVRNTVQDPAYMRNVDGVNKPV

Row | SMILES | Ki [1] | Ratio Ki [2] | Ki [3] | Ki [4] | Ratio ED50 [5] | Activity [6] | ED50 [6]
1 | O=C1CC[C@@]2(O)[C@H]3Cc4ccc(O)c5c4[C@@]2(CCN3CC2CC2)[C@H]1O5 [NALTREXONE] | 20.7 nM | – | – | – | – | – | –
2 | CN1CC[C@]23c4c5ccc(O)c4O[C@H]2[C@]2(CC[C@@]3(O)[C@H]1C5)O[C@@H]1N3[C@H]2O[C@]2(CC[C@@]4(O)[C@H]5Cc6ccc(O)c7c6[C@@]4(CCN5CC4CC4)[C@H]2O7)[C@@H]3O[C@]12CC[C@@]1(O)[C@H]3Cc4ccc(O)c5c4[C@@]1(CCN3C)[C@H]2O5 | 23.5 nM | 12.7 | 10.9 nM | 1.85 nM | – | – | –
3 | CN1CC[C@]23c4c5ccc(O)c4O[C@H]2[C@]2(CC[C@@]3(O)[C@H]1C5)O[C@@H]1N3[C@H]2O[C@]2(CC[C@@]4(O)[C@H]5Cc6ccc(O)c7c6[C@@]4(CCN5C)[C@H]2O7)[C@@H]3O[C@]12CC[C@@]1(O)[C@H]3Cc4ccc(O)c5c4[C@@]1(CCN3C)[C@H]2O5 | 38.6 nM | 36.8 | 16.1 nM | 1.05 nM | 16 | Dose-dependent effect | 0.037 mg/kg
4 | Oc1ccc2c3c1O[C@H]1[C@]4(CC[C@H]5[C@@H](C2)N(CC2CC2)CC[C@@]351)O[C@@H]1N2[C@H]4O[C@]3(CC[C@H]4[C@H]5Cc6ccc(O)c7c6[C@@]4(CCN5CC4CC4)[C@H]3O7)[C@@H]2O[C@]12CC[C@H]1[C@H]3Cc4ccc(O)c5c4[C@@]1(CCN3CC1CC1)[C@H]2O5 | 53.7 nM | 2.4 | 43.2 nM | 22.3 nM | – | – | –
5 | CN1CC[C@]23c4c5ccc(O)c4O[C@H]2[C@]2(CC[C@@]3(O)[C@H]1C5)O[C@@H]1N3[C@H]2O[C@]2(CC[C@@]4(O)[C@H]5Cc6ccc(O)c7c6[C@@]4(CCN5CC4CC4)[C@H]2O7)[C@@H]3O[C@]12CC[C@@]1(O)[C@H]3Cc4ccc(O)c5c4[C@@]1(CCN3CC1CC1)[C@H]2O5 | 24.6 nM | 6.2 | 10.1 nM | 3.98 nM | – | – | –
6 | Oc1ccc2c3c1O[C@H]1[C@]4(CC[C@@]5(O)[C@@H](C2)N(CC2CC2)CC[C@]315)O[C@@H]1N2[C@H]4O[C@]3(CC[C@@]4(O)[C@H]5Cc6ccc(O)c7c6[C@@]4(CCN5CC4CC4)[C@H]3O7)[C@@H]2O[C@]12CC[C@@]1(O)[C@H]3Cc4ccc(O)c5c4[C@@]1(CCN3CC1CC1)[C@H]2O5 | 122 nM | 5.5 | 22.1 nM | 22.2 nM | – | – | –

From ChEMBL document CHEMBL1795328, “Synthesis of novel triplet drugs with 1,3,5-trioxazatriquinane skeletons and their pharmacologies. 1: Synthesis of triplet drugs with morphinan skeletons” (Bioorg Med Chem Lett, 2011)
